# Legend:
# Format in all cases: cell-based
# K-562 = assay: SRB colorimetric cell growth inhibition assay, K-562; settings: Homo sapiens
# In short: (§1)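 Quantitation uses the sulforhodamine B reaction on cells exposed to sample for the whole assay period; results (mean ± SD, n = 3 wells) yield GI, TGI and LC.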
# A-549 = assay: SRB colorimetric cell growth inhibition assay, A-549; settings: Homo sapiens
# In short: as §1
# SK-MEL-28 = assay: SRB colorimetric cell growth inhibition assay, SK-MEL-28; settings: Homo sapiens
# In short: as §1
# HT-29 = assay: SRB colorimetric cell growth inhibition assay, HT-29; settings: Homo sapiens
# In short: as §1
# LoVo = assay: SRB colorimetric cell growth inhibition assay, LoVo; settings: Homo sapiens, LoVo
# In short: as §1
# LoVo-Dox = assay: SRB colorimetric cell growth inhibition assay, LoVo-Dox (MDR); settings: Homo sapiens
# In short: as §1
# DU-145 = assay: SRB colorimetric cell growth inhibition assay, DU-145; settings: Homo sapiens
# In short: as §1
# LNCaP = assay: SRB colorimetric cell growth inhibition assay, LNCaP; settings: Homo sapiens, LNCaP
# In short: as §1
# SK-BR-3 = assay: SRB colorimetric cell growth inhibition assay, SK-BR-3; settings: Homo sapiens
# In short: as §1
# IGROV = assay: SRB colorimetric cell growth inhibition assay, IGROV; settings: Homo sapiens, IGROV
# In short: as §1
# IGROV-ET = assay: SRB colorimetric cell growth inhibition assay, IGROV-ET (ET-743 resistant); settings: Homo sapiens
# In short: as §1
# PANC-1 = assay: SRB colorimetric cell growth inhibition assay, PANC-1; settings: Homo sapiens
# In short: as §1
# SKOV-3 = assay: SRB colorimetric cell growth inhibition assay, SKOV-3; settings: Homo sapiens
# In short: (§2)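 Growth and viability quantified by sulforhodamine B staining in 96-well microplates. Triplicate wells give mean ± SD; derived endpoints are GI, TGI (cytostatic) and LC (cytotoxic).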
# [1] = SRB colorimetric cell growth inhibition assay, H-MEC-1; settings: human, LC50 H-MEC-1
# In short: as §2
# H-MEC-1 = assay: as above; settings: Homo sapiens, HMEC-1, H-MEC-1
# In short: as §2
smiles,measurement,setting,value
COc1cc(-c2c3n(c4c(=O)oc5cc(OC(=O)[C@@H]6CCCN6)c(OC)cc5c24)CCc2cc(OC(=O)[C@@H]4CCCN4)c(OC)cc2-3)ccc1OC(=O)[C@@H]1CCCN1 [Compound 134],GI50,"K-562; K562, K-562, GI=growth inhibition, read-out: GI50 K-562",0.571 µM
same,IC (TGI),"K-562; K562, K-562, total growth inhibition (cytostatic effect), read-out: TGI K-562",4.93 µM
same,CC50,"K-562; K562, read-out: LC50 K-562, K-562, cell killing (cytotoxic effect)",8.81 µM
same,GI50,"A-549; A549, A-549, GI=growth inhibition, read-out: GI50 A-549",2.55 µM
same,IC (TGI),"A-549; A549, A-549, total growth inhibition (cytostatic effect), read-out: TGI A-549",4.93 µM
same,CC50,"A-549; A549, read-out: LC50 A-549, A-549, cell killing (cytotoxic effect)",8.81 µM
same,GI50,"SK-MEL-28; SK-MEL-28, MEL-28, GI=growth inhibition, read-out: GI50 MEL-28",1.73 µM
same,IC (TGI),"SK-MEL-28; SK-MEL-28, MEL-28, TGI=total growth inhibition (cytostatic effect), read-out: TGI MEL-28",3.23 µM
same,CC50,"SK-MEL-28; SK-MEL-28, read-out: LC50 MEL-28, MEL-28, LC=cell killing (cytotoxic effect)",6.04 µM
same,GI50,"HT-29; HT-29, HT-29, GI=growth inhibition, read-out: GI50 HT-29",2.85 µM
same,CC50,"HT-29; HT-29, read-out: LC50 HT-29, HT-29, cell killing (cytotoxic effect)",8.81 µM
same,IC (TGI),"HT-29; HT-29, total growth inhibition (cytostatic effect), read-out: TGI HT-29",8.81 µM
same,CC50,"LoVo; read-out: LC50 LOVO, LOVO, cell killing (cytotoxic effect)",8.67 µM
same,GI50,"LoVo; GI=growth inhibition, read-out: GI50 LOVO",2.05 µM
same,IC (TGI),"LoVo; total growth inhibition (cytostatic effect), read-out: TGI LOVO",4.21 µM
same,GI50,"LoVo-Dox; LOVO-DOX, GI=growth inhibition, read-out: GI50 LOVO-DOX",0.519 µM
same,IC (TGI),"LoVo-Dox; LOVO-DOX, total growth inhibition (cytostatic effect), read-out: TGI LOVO-DOX",1.99 µM
same,CC50,"LoVo-Dox; read-out: LC50 LOVO-DOX, LOVO-DOX, cell killing (cytotoxic effect)",7.79 µM
same,GI50,"DU-145; DU-145, DU-145, GI=growth inhibition, read-out: GI50 DU-145",2.12 µM
same,IC (TGI),"DU-145; DU-145, DU-145, TGI=total growth inhibition (cytostatic effect), read-out: TGI DU-145",4.47 µM
same,CC50,"DU-145; DU-145, read-out: LC50 DU-145, DU-145, LC=cell killing (cytotoxic effect)",8.81 µM
same,GI50,"LNCaP; LN-caP, GI=growth inhibition, read-out: GI50 LN-caP",0.458 µM
same,IC (TGI),"LNCaP; LN-caP, TGI=total growth inhibition (cytostatic effect), read-out: TGI LN-caP",1.34 µM
same,CC50,"LNCaP; read-out: LC50 LN-caP, LN-caP, LC=cell killing (cytotoxic effect)",4.16 µM
same,GI50,"SK-BR-3; SK-BR-3, SK-BR-3, GI=growth inhibition, read-out: GI50 SK-BR-3",2.1 µM
same,IC (TGI),"SK-BR-3; SK-BR-3, SK-BR-3, TGI=total growth inhibition (cytostatic effect), read-out: TGI SK-BR-3",4.34 µM
same,CC50,"SK-BR-3; SK-BR-3, read-out: LC50 SK-BR-3, SK-BR-3, LC=cell killing (cytotoxic effect)",8.81 µM
same,CC50,"IGROV; read-out: LC50 IGROV, IGROV, LC=cell killing (cytotoxic effect)",6.5 µM
same,GI50,"IGROV; GI=growth inhibition, read-out: GI50 IGROV",0.943 µM
same,IC (TGI),"IGROV; TGI=total growth inhibition (cytostatic effect), read-out: TGI IGROV",2.48 µM
same,GI50,"IGROV-ET; IGROV-ET, GI=growth inhibition, read-out: GI50 IGROV-ET",0.482 µM
same,IC (TGI),"IGROV-ET; IGROV-ET, TGI=total growth inhibition (cytostatic effect), read-out: TGI IGROV-ET",2.14 µM
same,CC50,"IGROV-ET; read-out: LC50 IGROV-ET, IGROV-ET, LC=cell killing (cytotoxic effect)",7.58 µM
same,GI50,"PANC-1; PANC-1, PANC-1, GI=growth inhibition, read-out: GI50 PANC-1",2.17 µM
same,IC (TGI),"PANC-1; PANC-1, PANC-1, total growth inhibition (cytostatic effect), read-out: TGI PANC-1",4.53 µM
same,CC50,"PANC-1; PANC-1, read-out: LC50 PANC-1, PANC-1, cell killing (cytotoxic effect)",8.81 µM
same,GI50,"SKOV-3; SK-OV-3, SKOV-3, GI=growth inhibition, read-out: GI50 SKOV-3",0.739 µM
same,CC50,"SKOV-3; SK-OV-3, read-out: LC50 SKOV-3",4.26 µM
same,IC (TGI),"SKOV-3; SK-OV-3, SKOV-3, TGI=total growth inhibition (cytostatic effect), read-out: TGI SKOV-3",1.85 µM
same,CC50,[1],8.81 µM
same,GI50,H-MEC-1; GI=growth inhibition,2.13 µM
same,IC (TGI),"H-MEC-1; TGI=total growth inhibition (cytostatic effect), read-out: TGI H-MEC-1",6.51 µM
